# Experiments:
# Assay type in all cases: functional
# Nakaseomyces glabratus [1] = experiment: Antifungal activity against Candida glabrata NCIM 3236 assessed as reduction in fungal cell growth incubated for 24 hrs by broth microdilution method; conditions: NCIM 3236, 24 h
# Nakaseomyces glabratus [2] = experiment: Potency index, ratio for MIC of fluconazole to MIC of compound for antifungal activity against Candida glabrata NCIM 3236 assessed as reduction in fungal cell growth incubated for 24 hrs by broth microdilution method
# Candida tropicalis [3] = experiment: Antifungal activity against Candida tropicalis NCIM 3110 assessed as reduction in fungal cell growth incubated for 48 hrs by broth microdilution method; conditions: NCIM 3110, 48 h
# Candida tropicalis [4] = experiment: Potency index, ratio for MIC of fluconazole to MIC of compound for Antifungal activity against Candida tropicalis NCIM 3110 assessed as reduction in fungal cell growth incubated for 24 hrs by broth microdilution method
# Candida albicans [5] = experiment: Antifungal activity against Candida albicans MTCC 227 assessed as reduction in fungal cell growth incubated for 24 hrs by broth microdilution method; conditions: MTCC 227, 24 h
# Aspergillus fumigatus [6] = experiment: Potency index, ratio for MIC of fluconazole to MIC of compound for antifungal activity against Aspergillus fumigatus
# Aspergillus niger [7] = experiment: Potency index, ratio for MIC of fluconazole to MIC of compound for antifungal activity against Aspergillus niger
# Aspergillus niger [8] = experiment: Antifungal activity against Aspergillus niger assessed as inhibition zone at 1 ug/ml incubated for 24 to 72 hrs by disk diffusion method
# Candida albicans [9] = experiment: Antifungal activity against Candida albicans MTCC 227 assessed as reduction in fungal cell growth incubated for 24 and 48 hrs by broth microdilution method
# Aspergillus flavus [10] = experiment: Antifungal activity against Aspergillus flavus assessed as inhibition zone at 1 ug/ml incubated for 24 to 72 hrs by disk diffusion method
# Trichoderma harzianum = experiment: Antifungal activity against Trichoderma harzianum assessed as inhibition zone at 1 ug/ml incubated for 24 to 72 hrs by disk diffusion method
# Candida albicans [11] = experiment: Antifungal activity against Candida albicans ATCC 885653 assessed as inhibition zone at 100 ug/ml incubated for 48 to 72 hrs by agar-diffusion method
# Aspergillus fumigatus [12] = experiment: Antifungal activity against Aspergillus fumigatus assessed as inhibition zone at 1 ug/ml incubated for 24 to 72 hrs by disk diffusion method
# Candida albicans [13] = experiment: Antifungal activity against Candida albicans
# Nakaseomyces glabratus [14] = experiment: Antifungal activity against Candida glabrata ATCC 36583 by broth microdilution method
# Candida tropicalis [15] = experiment: Antifungal activity against Candida tropicalis by broth microdilution method
# Aspergillus niger [16] = experiment: Antifungal activity against Aspergillus niger
# Rhizopus arrhizus = experiment: Antifungal activity against Rhizopus arrhizus
# Mucor indicus = experiment: Antifungal activity against Mucor indicus
# Aspergillus flavus [17] = experiment: Antifungal activity against Aspergillus flavus
# Candida albicans [18] = experiment: Antifungal activity against Candida albicans assessed as reduction in fungal cell growth incubated for 48 hrs by broth microdilution method
# Aspergillus niger [19] = experiment: Antifungal activity against Aspergillus niger assessed as reduction in fungal cell growth incubated for 48 hrs by broth microdilution method
# Aspergillus flavus [20] = experiment: Antifungal activity against Aspergillus flavus NCIM 524 assessed as reduction in fungal cell growth incubated for 3 to 4 days by disk diffusion method
# Talaromyces marneffei = experiment: Antifungal activity against Penicillium marneffei assessed as reduction in fungal cell growth incubated for 3 to 4 days by disk diffusion method
# Aspergillus fumigatus [21] = experiment: Antifungal activity against Aspergillus fumigatus NCIM 902 assessed as reduction in fungal cell growth incubated for 3 to 4 days by disk diffusion method
# [22] = test system: Trichophyton mentagrophytes; experiment: Antifungal activity against Trichophyton mentagrophytes assessed as reduction in fungal cell growth incubated for 3 to 4 days by disk diffusion method
# Aspergillus niger [23] = experiment: Antifungal activity against Aspergillus niger MTCC281 assessed as reduction in fungal cell growth incubated for 24 to 48 hrs
# Candida albicans [24] = experiment: Antifungal activity against Candida albicans MTCC183 assessed as reduction in fungal cell growth incubated for 24 to 48 hrs
# Nakaseomyces glabratus [25] = experiment: Antifungal activity against Candida glabrata assessed as reduction in fungal cell growth incubated for 24 hrs by broth microdilution method
# Pichia kudriavzevii = experiment: Antifungal activity against Candida krusei assessed as reduction in fungal cell growth incubated for 24 hrs by broth microdilution method
# Candida albicans [26] = experiment: Antifungal activity against Candida albicans assessed as reduction in fungal cell growth incubated for 24 hrs by broth microdilution method
# Candida tropicalis [27] = experiment: Antifungal activity against Candida tropicalis assessed as reduction in fungal cell growth incubated for 24 hrs by broth microdilution method
molecule,measurement,setting,value
O=c1c(OCc2nnn[nH]2)c(-c2ccc(F)cc2)oc2ccccc12,MIC,Nakaseomyces glabratus [1],12.5 to 50 µg/mL
same,Ratio,Nakaseomyces glabratus [2],16 - 64
same,MIC,Candida tropicalis [3],12.5 to 50 µg/mL
same,Ratio,Candida tropicalis [4],16 - 64
same,MIC,Candida albicans [5],12.5 to 25 µg/mL
O=C(/C=C/c1ccc(OC(F)F)c(O)c1)c1ccc(-n2cnnn2)cc1,Ratio,Aspergillus fumigatus [6],>4
same,Ratio,Aspergillus niger [7],>4
NYSTATIN,inhibition zone (IZ),Aspergillus niger [8],2.4 to 2.8 mm
same,MIC,Candida albicans [9],100 µg/mL
same,inhibition zone (IZ),Aspergillus flavus [10],2.4 to 2.8 mm
same,inhibition zone (IZ),Trichoderma harzianum,2.4 to 2.8 mm
same,inhibition zone (IZ),Candida albicans [11],21 mm
same,inhibition zone (IZ),Aspergillus fumigatus [12],2.4 to 2.8 mm
Cc1cccc2c(=O)c(OCc3nnn[nH]3)c(-c3ccc(F)cc3)oc12,MIC,Nakaseomyces glabratus [1],12.5 to 50 µg/mL
same,Ratio,Nakaseomyces glabratus [2],8 - 64
same,MIC,Candida tropicalis [3],12.5 to 50 µg/mL
same,Ratio,Candida tropicalis [4],8 - 64
same,MIC,Candida albicans [5],12.5 to 50 µg/mL
Cn1c(-c2ccc(NC(=O)CSc3nnnn3-c3ccccc3)cc2)nc2cc(Cl)c(Cl)cc21,MIC,Candida albicans [13],25 to 50 µg/mL
same,MIC,Nakaseomyces glabratus [14],25 to 50 µg/mL
same,MIC,Candida tropicalis [15],25 to 50 µg/mL
O=C(O)c1cn(C2CC2)c2nc(N3CCN(CC(=O)c4nnnn4-c4ccc(Cl)cc4)CC3)c(F)cc2c1=O,MIC,Candida albicans [13],6.25 to 100 µg/mL
same,MIC,Aspergillus niger [16],6.25 to 100 µg/mL
same,MIC,Rhizopus arrhizus,6.25 to 100 µg/mL
same,MIC,Mucor indicus,6.25 to 100 µg/mL
same,MIC,Aspergillus flavus [17],6.25 to 100 µg/mL
S=c1[nH]c2c(c3nnnn13)C(c1ccccc1)c1ccc3ccccc3c1O2 (stereo not drawn),MIC,Candida albicans [18],50 to 400 µg/mL
same,MIC,Aspergillus niger [19],50 to 400 µg/mL
O=C(O)c1cn(C2CC2)c2nc(N3CCN(CC(=O)c4nnnn4-c4ccc(Br)cc4)CC3)c(F)cc2c1=O,MIC,Candida albicans [13],6.25 to 100 µg/mL
same,MIC,Aspergillus niger [16],6.25 to 100 µg/mL
same,MIC,Rhizopus arrhizus,6.25 to 100 µg/mL
same,MIC,Mucor indicus,6.25 to 100 µg/mL
same,MIC,Aspergillus flavus [17],6.25 to 100 µg/mL
c1ccc(Cn2nnnc2SCCCSc2nnnn2-c2ccccc2)cc1,MIC,Aspergillus flavus [20],6.25 µg/mL
same,MIC,Talaromyces marneffei,6.25 µg/mL
same,MIC,Aspergillus fumigatus [21],6.25 µg/mL
same,MIC,[22],6.25 µg/mL
Cc1ccc2oc(-c3ccc(F)cc3)c(OCc3nnn[nH]3)c(=O)c2c1,MIC,Nakaseomyces glabratus [1],12.5 to 50 µg/mL
same,Ratio,Nakaseomyces glabratus [2],8 - 64
same,MIC,Candida tropicalis [3],12.5 to 50 µg/mL
same,Ratio,Candida tropicalis [4],8 - 64
same,MIC,Candida albicans [5],12.5 to 50 µg/mL
Clc1ccc(COC(Cn2ccnc2)c2ccc(Cl)cc2Cl)c(Cl)c1 (stereo not drawn) [MICONAZOLE],MIC,Aspergillus niger [23],12.5 µg/mL
same,MIC,Nakaseomyces glabratus [1],400 µg/mL
same,MIC,Candida albicans [24],25 µg/mL
same,MIC,Candida albicans [5],12.5 µg/mL
O=c1c(OCc2nnn[nH]2)c(-c2ccc(F)cc2)oc2c(Cl)cc(Cl)cc12,MIC,Nakaseomyces glabratus [1],12.5 to 50 µg/mL
same,Ratio,Nakaseomyces glabratus [2],8 - 64
same,MIC,Candida tropicalis [3],12.5 to 50 µg/mL
same,Ratio,Candida tropicalis [4],8 - 64
same,MIC,Candida albicans [5],12.5 to 50 µg/mL
S=c1[nH]c2c(c3nnnn13)C(c1ccc(Cl)cc1)c1ccc3ccccc3c1O2 (stereo not drawn),MIC,Candida albicans [18],50 to 400 µg/mL
same,MIC,Aspergillus niger [19],50 to 400 µg/mL
Fc1cc2[nH]c(SCc3ccc(-c4ccccc4-c4nnnn4C(c4ccccc4)(c4ccccc4)c4ccccc4)cc3)nc2cc1-n1cncn1,MIC,Nakaseomyces glabratus [25],4 to 8 µg/mL
same,MIC,Pichia kudriavzevii,4 to 8 µg/mL
same,MIC,Candida albicans [26],4 to 8 µg/mL
same,MIC,Candida tropicalis [27],4 to 8 µg/mL
Cc1cc2oc(-c3ccc(F)cc3)c(OCc3nnn[nH]3)c(=O)c2cc1Cl,MIC,Nakaseomyces glabratus [1],12.5 to 50 µg/mL
same,Ratio,Nakaseomyces glabratus [2],16 - 64
same,MIC,Candida tropicalis [3],12.5 to 50 µg/mL
same,Ratio,Candida tropicalis [4],16 - 64
same,MIC,Candida albicans [5],12.5 to 25 µg/mL
N#Cc1c(-c2ccco2)nc2sc3c4nnnn4cnc3n2c1=O,zone of inhibition at 1 µg/mL,Aspergillus niger [8]; read-out: IZ,1.8 to 2.5 mm
same,zone of inhibition at 1 µg/mL,Aspergillus flavus [10]; read-out: IZ,1.8 to 2.5 mm
same,zone of inhibition at 1 µg/mL,Trichoderma harzianum; read-out: IZ,1.8 to 2.5 mm
same,zone of inhibition at 1 µg/mL,Aspergillus fumigatus [12]; read-out: IZ,1.8 to 2.5 mm
COc1ccc(C2c3ccc4ccccc4c3Oc3[nH]c(=S)n4nnnc4c32)cc1 (stereo not drawn),MIC,Candida albicans [18],50 to 400 µg/mL
same,MIC,Aspergillus niger [19],50 to 400 µg/mL
O=c1c(OCc2nnn[nH]2)c(-c2ccc(F)cc2)oc2ccc(Cl)cc12,MIC,Nakaseomyces glabratus [1],12.5 to 50 µg/mL
same,Ratio,Nakaseomyces glabratus [2],16 - 64
same,MIC,Candida tropicalis [3],12.5 to 50 µg/mL
same,Ratio,Candida tropicalis [4],16 - 64
same,MIC,Candida albicans [5],12.5 to 25 µg/mL

# From ChEMBL document CHEMBL4393657, “Tetrazole hybrids and their antifungal activities” (2019)
